Laboratory results taken from article PMC10308239, “Light-driven Proton Pumps as a Potential Regulator for Carbon Fixation in Marine Diatoms” (Microbes and Environments, 2023).

Assays:
PngR = biological target: T1, PngR (Pseudo-nitzschia granii, UniProt A0A0A7RP02); assay: HPLC of retinal oxime isomers from purified holoprotein; absorption spectrum; format: binding; conditions: covalent; chromophore; light- and dark-adapted samples; 50 mM Tris-HCl pH 7.0, 1 M NaCl, 0.05% DDM
T1 construct: gene RHO; full length, E. coli codon-optimised, C-terminal His6 tag (pET21a NdeI-XhoI), expressed in E. coli BL21(DE3) with all-trans retinal, purified in DDM

Asp91 (position 91, …) = assay: UV-vis; conditions: room temperature (approximately 25°C), 1 M NaCl, Buffer A: 50 mM Tris-HCl, 0.05% (w/v) DDM, pH adjusted by addition of HCl, Dark/ground (unphotolysed) state with all-trans retinal, measured under room light, DDM-solubilised, folded (reversibility checked)

| Molecule | HPLC of retinal oxime isomers from purified holoprotein; absorption spectrum (PngR) | pKa (Asp91 (position 91, …)) |
| --- | --- | --- |
| CC1=C(/C=C/C(C)=C/C=C/C(C)=C/C=O)C(C)(C)CCC1 [all-trans retinal] | In light- and dark-adapted samples, the isomeric state of retinal was predominantly all-trans |  |
| PngR (Pseudo-nitzschia granii rhodopsin, xanthorhodopsin-like light-driven proton pump) (Pseudo-nitzschia granii) (protein) MVTANQFTIVYDVLSFSLATMMATTIFLWMRVPSVHEKYKSALIISGLVTFIAAYHYLRIFNSWTEAYEWTAEGELSATASPFNDAYRYMDWLLTVPLLLIEIILVMKLPADESRSKATTLGIASAAMIAIGYPGELAMSDDSLGTRWVYWIGAMLPFLYIVQTLLVGLNDATQSEADPAIRDLIKGVQWWTVISWCTYPVVYVFPMMGITGTNAIVGIQLGYSVSDIISKCGVGLMIYQITIAKSYALKKGNEETPLYG |  | approximately 5.0 |
